Assay results taken from patent publication US9113629B2, “4-amino-6-(4-substituted-phenyl)-picolinates and 6-amino-2-(4-substituted-phenyl)-pyrimidine-4-carboxylates and their use as herbicides” (DOW AGROSCIENCES LLC, priority 2013, dated 2015).
Read-outs that look alike come from different tables or passages of the source.

Columns and labels:
[1] = system: HORSS: barley, including spring and winter (Hordeum vulgare); experiment: Post-emergent Test III, herbicidal activity in wheat and barley; assay type: in vivo; settings: for pest or weed control at 35 g/ha / pest or weed control at 70 g/ha: Hordeum vulgare, post-emergence, 504 h; for pest or weed control at 35 g/ha: 35 g ai/ha; for pest or weed control at 70 g/ha: 70 g ai/ha; for GR20 HORSS: probit analysis
Method in brief: (§1)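 Plants at the second to third true-leaf stage, grown in a greenhouse at about 18/17 °C with a 14 h photoperiod, were sprayed post-emergence at 187 L/ha with the high rate and ½× to 1/16× serial dilutions in an acetone/DMSO/crop-oil/surfactant carrier. Injury was rated visually at 21 d on a 0–100% scale, and GR20–GR90 were derived by probit analysis.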

[2] = system: KCHSC: kochia (Kochia scoparia); experiment: as above; assay type: in vivo; settings: for pest or weed control at 35 g/ha / pest or weed control at 70 g/ha: Bassia scoparia, post-emergence, 504 h; for pest or weed control at 35 g/ha: 35 g ai/ha; for pest or weed control at 70 g/ha: 70 g ai/ha; for GR50 KCHSC / GR80 KCHSC: probit analysis; for GR50 KCHSC: dose for 50 percent growth reduction; for GR80 KCHSC: dose for 80 percent growth reduction
Method in brief: as §1

[3] = system: MATSS: scented mayweed (Matricaria chamomilla), pineappleweed (Matricaria matricarioides); experiment: as above; assay type: in vivo; settings: 21 days after application
Method in brief: as §1

[4] = system: TRZSS: wheat, including spring and winter (Triticum aestivum); experiment: as above; assay type: in vivo; settings: for pest or weed control at 35 g/ha / pest or weed control at 70 g/ha: Triticum aestivum, post-emergence, 504 h; for pest or weed control at 35 g/ha: 35 g ai/ha; for pest or weed control at 70 g/ha: 70 g ai/ha; for GR20 TRZSS: probit analysis
Method in brief: as §1

[5] = system: VERPE: bird's-eye speedwell (veronica persica); experiment: as above; assay type: in vivo; settings: 21 days after application
Method in brief: as §1

[6] = as above; assay type: in vivo, Lolium multiflorum, Lolium rigidum; settings: Lolium multiflorum, post-emergence, 504 h, Table 9, post-emergent, 21 d, read-out: Visual Growth Reduction (%) 21 Days After Application LOLSS; for pest or weed control at 35 g/ha: 35 g ai/ha; for pest or weed control at 70 g/ha: 70 g ai/ha
Method in brief: as §1

[7] = system: APESV: bentgrass (Apera spica-venti); experiment: as above; assay type: in vivo; settings: Table 9, 21 d; for pest or weed control at 35 g/ha / pest or weed control at 70 g/ha: Apera spica-venti, post-emergence, 504 h, post-emergent, read-out: Visual Growth Reduction (%) 21 Days After Application APESV; for pest or weed control at 35 g/ha: 35 g ai/ha; for pest or weed control at 70 g/ha: 70 g ai/ha; for GR50 APESV: dose for 50 percent growth reduction; for GR50 APESV / GR80 APESV: probit analysis; for GR80 APESV: dose for 80 percent growth reduction
Method in brief: as §1

[8] = system: LOLSS: ryegrass including, Italian ryegrass (Lolium multiflorum), rigid ryegrass (Lolium rigidum), annual ryegrass (Lolium multiflorum subsp. Gaudini); experiment: as above; assay type: in vivo; settings: Table 9, probit analysis, 21 d; for GR50 LOLSS: dose for 50 percent growth reduction; for GR80 LOLSS: dose for 80 percent growth reduction
Method in brief: as §1

[9] = system: SETVI: green foxtail (Setaria viridis); experiment: as above; assay type: in vivo; settings: Table 9, 21 d; for pest or weed control at 35 g/ha / pest or weed control at 70 g/ha: Setaria viridis, post-emergence, 504 h, post-emergent, read-out: Visual Growth Reduction (%) 21 Days After Application SETVI; for pest or weed control at 35 g/ha: 35 g ai/ha; for pest or weed control at 70 g/ha: 70 g ai/ha; for GR50 SETVI: dose for 50 percent growth reduction; for GR50 SETVI / GR80 SETVI: probit analysis; for GR80 SETVI: dose for 80 percent growth reduction
Method in brief: as §1

[10] = 21 days after application, read-out: Visual Gorowth Reduction (%) 21 days After Application HORSS
[11] = dose for 20 percent growth reduction (crop), 21 days after application
[12] = 21 days after application, read-out: Visual Gorowth Reduction (%) 21 days After Application KCHSC
[13] = probit analysis, dose for 50 percent growth reduction
[14] = probit analysis, dose for 80 percent growth reduction
[15] = 21 days after application, read-out: Visual Gorowth Reduction (%) 21 days After Application TRZSS
[16] = Table 9, post-emergent, 21 d, read-out: Visual Growth Reduction (%) 21 Days After Application HORSS
[17] = Table 9, dose for 20 percent growth reduction, 21 d
[18] = Table 9, post-emergent, 21 d, read-out: Visual Growth Reduction (%) 21 Days After Application KCHSC
[19] = Table 9, post-emergent, 21 d, read-out: Visual Growth Reduction (%) 21 Days After Application TRZSS

SMILES	pest or weed control at 35 g/ha [6]	pest or weed control at 70 g/ha [6]	pest or weed control at 35 g/ha [7]	pest or weed control at 70 g/ha [7]	GR50 APESV [7]	GR80 APESV [7]	pest or weed control at 35 g/ha [1, 16]	pest or weed control at 70 g/ha [1, 16]	GR20 HORSS [1, 17]	pest or weed control at 35 g/ha [2, 18]	pest or weed control at 70 g/ha [2, 18]	GR50 KCHSC ([2]; Table 9, 21 d)	GR80 KCHSC ([2]; Table 9, 21 d)	GR50 LOLSS [8]	GR80 LOLSS [8]	pest or weed control at 35 g/ha [9]	pest or weed control at 70 g/ha [9]	GR50 SETVI [9]	GR80 SETVI [9]	GR20 TRZSS [4, 17]	also measured
COC(=O)c1nc(-c2ccc(Br)c(F)c2)c(F)c(N)c1Cl [Compound 49]																					pest or weed control at 35 g/ha [1, 10]: 75 to 84%; pest or weed control at 70 g/ha [1, 10]: 85 to 94%; GR20 HORSS [1, 11]: 1 g ai/ha; pest or weed control at 35 g/ha [2, 12]: 85 to 94%; pest or weed control at 70 g/ha [2, 12]: 85 to 94%; GR50 KCHSC ([2]; 21 days after application): 4 g ai/ha; GR80 KCHSC ([2]; 21 days after application): 18 g ai/ha; pest or weed control at 35 g/ha ([3]; Matricaria chamomilla, post-emergence, 504 h, 35 g ai/ha, read-out: Visual Gorowth Reduction (%) 21 days After Application MATSS): 60 to 74%; pest or weed control at 70 g/ha ([3]; Matricaria chamomilla, post-emergence, 504 h, 70 g ai/ha, read-out: Visual Gorowth Reduction (%) 21 days After Application MATSS): 75 to 84%; GR50 MATSS [3, 13]: 15 g ai/ha; GR80 MATSS [3, 14]: 93 g ai/ha; pest or weed control at 35 g/ha [4, 15]: 75 to 84%; pest or weed control at 70 g/ha [4, 15]: 85 to 94%; GR20 TRZSS [4, 11]: 1 g ai/ha; pest or weed control at 35 g/ha ([5]; Veronica persica, post-emergence, 504 h, 35 g ai/ha, read-out: Visual Gorowth Reduction (%) 21 days After Application VERPE): 45 to 59%; pest or weed control at 70 g/ha ([5]; Veronica persica, post-emergence, 504 h, 70 g ai/ha, read-out: Visual Gorowth Reduction (%) 21 days After Application VERPE): 60 to 74%; GR50 VERPE [5, 13]: 37 g ai/ha; GR80 VERPE [5, 14]: >140 g ai/ha
COc1c(N)nc(-c2ccc(C(F)(F)F)c(F)c2F)nc1C(=O)O [Compound 76]	30 to 44%	45 to 59%	75 to 84%	85 to 94%	27 g ai/ha	52 g ai/ha	60 to 74%	60 to 74%	6 g ai/ha	0 to 29%	45 to 59%	74 g ai/ha	132 g ai/ha	53 g ai/ha	133 g ai/ha	45 to 59%	60 to 74%	42 g ai/ha	87 g ai/ha	4 g ai/ha	pest or weed control at 35 g/ha [4, 19]: 75 to 84%; pest or weed control at 70 g/ha [4, 19]: 85 to 94%
Nc1cc(-c2ccc(C(F)(F)F)c(F)c2F)nc(C(=O)O)c1Cl [Compound 172, 4-amino-3-chloro-6-(2,3-difluoro-4-(trifluoromethyl)phenyl)picolinic acid]	0 to 29%	0 to 29%	30 to 44%	60 to 74%	53 g ai/ha	124 g ai/ha	60 to 74%	60 to 74%	3 g ai/ha	60 to 74%	60 to 74%	38 g ai/ha	73 g ai/ha	>140 g ai/ha	>140 g ai/ha	60 to 74%	75 to 84%	25 g ai/ha	56 g ai/ha	1 g ai/ha	pest or weed control at 35 g/ha [4, 19]: 75 to 84%; pest or weed control at 70 g/ha [4, 19]: 75 to 84%
